The results in this text go back to patent US20240166617A1, “PHOSPHOINOSITIDE 3 KINASE BETA INHIBITORS AND COMPOSITIONS AND METHODS THEREOF” (Geode Therapeutics Inc., priority 2021, published 2024).

Where two headings read alike, the source gives them in different places.

This test concerns phosphorylation of AKT in HCC70 cells. Nature of the test: Cellular assay: phosphorylation of AKT in HCC70 cells (western blotting). The format is cell-based. The conditions noted are these: Homo sapiens, HCC70, 1 h. On the procedure:
Cellular activity of PI3Kβ inhibitors was determined by quantifying the phosphorylation of AKT in HCC70 cells. AKT phosphorylated at Ser473 and Thr308 were measured using western blotting and specific primary antibodies from Cell Signaling (CST), Danvers, MA. On day 1, HCC70 cells (ATCC #CRL-2315) were seeded into Falcon 12-well cell Culture Plate (Corning #353043) at 100,000 cells per well, in 1 ml complete culture medium (RPMI-1640, GIBCO #11875093) containing 10% heat inactivated FBS (GIBCO #10438026), 1% Pen-Strep (GIBCO #15140122) and incubated at 37° AC, 5% CO2 overnight. On day 2, compound (500 nM) or DMSO (0.1%, Sigma Aldrich #8418) was added and cells were further incubated for 60 min at 37° AC, 5% CO2 in a total volume of 1 ml fresh medium.
At the end of the cell treatment period, media were removed by aspiration and adherent cells were lysed in 100 uL RIPA buffer (Sigma Aldrich #R0278). Equal volume (15 uL) of proteins was resolved by SDS-PAGE and transferred to PVDF (Millipore #IPFL00010) membrane for immunoblot analysis. Primary antibodies to the following proteins were used for immunoblotting: phosphor-AKT (Ser473) (CST #4060), phosphor-AKT (Thr308) (CST #2965), total AKT (CST #9272). Secondary goat anti-rabbit IgG fluorophore conjugated antibody (Invitrogen #A21109) was used to visualize the indicated proteins on an Odyssey CLx imaging system (Li-Cor). Quantification of band intensities was performed using Odyssey 3.0 software. Inhibition of Akt activity was calculated by band intensities using the formula: […]
Index was evaluated by % of AI. Data represent Index+(20˜60%), ++(60%˜80%), +++(80%˜90%), and ++++>90%.

Where [1] appears, read: HCC70 cells, compound 500 nM, 60 min, inhibition of Akt activity from band intensities, read-out: Index of AI (HCC70) p-AKT Thr 308.
The mark [2] stands for this setting: HCC70 cells, compound 500 nM, 60 min, inhibition of Akt activity from band intensities, read-out: Index of AI (HCC70) p-AKT ser 473.
[3] abbreviates: read-out: Index of AI (HCC70) p-AKT Thr 308.
Setting [4] is: read-out: Index of AI (HCC70) p-AKT ser 473.

As to `Cc1cc(CN2CCc3c(F)cccc32)c2nc(N3CCOCC3)cc(=O)n2c1` [Compound 52, 9-[(4-fluoroindolin-1-yl)methyl]-7-methyl-2-morpholino-pyrido[1,2-a]pyrimidin-4-one], the inhibition at 0.5 µM was 60 to 80% under setting [1] and 60 to 80% under setting [2]. With `C[C@H]1Cc2c(F)cc(F)cc2N1Cc1cc(C(=O)N(C)C)cc2c(=O)cc(N3CCOCC3)oc12` (single isomer, unassigned) [Compound 64], the inhibition at 0.5 µM is, setting by setting: under setting [1], more than 90%; under setting [2], more than 90%.

As for `CN1CCC(NC(=O)c2cc(CN3CCc4c(F)cc(F)cc43)c3oc(N4CCOCC4)cc(=O)c3c2)CC1` [Compound 82, 8-((4,6-difluoroindolin-1-yl)methyl)-N-(1-methylpiperidin-4-yl)-2-morpholino-4-oxo-4H-chromene-6-carboxamide], the inhibition at 0.5 µM is, setting by setting: under setting [1], 80 to 90%; under setting [2], 80 to 90%. On to `CC(Nc1cc(F)cc(F)c1)c1cc(NC(=O)CC#N)cc2c(=O)cc(N3CCOCC3)oc12` (stereo not shown) [Compound 22, 2-cyano-N-(8-(1-((3,5-difluorophenyl)amino)ethyl)-2-morpholino-4-oxo-4H-chromen-6-yl)acetamide], for which the inhibition at 0.5 µM was more than 90% under setting [1] and more than 90% under setting [2].

For the compound `O=C(c1cc(CN2CCc3c(F)cc(F)cc32)c2oc(N3CCOCC3)cc(=O)c2c1)N1CC(O)C1` [Compound 89, 8-((4,6-difluoroindolin-1-yl)methyl)-6-(3-hydroxyazetidine-1-carbonyl)-2-morpholino-4H-chromen-4-one], the inhibition at 0.5 µM under setting [2] lay in the range of 20 to 60%. For `CC(C)NC(=O)c1cc(CN2CCc3c(F)cc(F)cc32)c2oc(N3CCOCC3)cc(=O)c2c1` [Compound 81, 8-((4,6-difluoroindolin-1-yl)methyl)-N-isopropyl-2-morpholino-4-oxo-4H-chromene-6-carboxamide], the inhibition at 0.5 µM fell in the range of 60 to 80% under setting [1] and 60 to 80% under setting [2].

As for `CC(Nc1cc(F)cc(F)c1)c1cc(N=C(N)N)cc2c(=O)cc(N3CCOCC3)oc12` (stereo not shown) [Compound 14, 2-(8-(1-((3,5-difluorophenyl)amino)ethyl)-2-morpholino-4-oxo-4H-chromen-6-yl)guanidine], the inhibition at 0.5 µM fell in the range of 20 to 60% under setting [1] and 20 to 60% under setting [2]. For the compound `CN(C)C(=O)Nc1cc(CNc2cc(F)cc(F)c2)c2oc(N3CCOCC3)cc(=O)c2c1` [Compound 7, 3-(8-(((3,5-difluorophenyl)amino)methyl)-2-morpholino-4-oxo-4H-chromen-6-yl)-1,1-dimethylurea], the inhibition at 0.5 µM by setting is: under setting [1], 60 to 80%; under setting [2], 60 to 80%. For `CCN(C)C(=O)c1cc(CN2CCc3c(F)cc(F)cc32)c2oc(N3CCOCC3)cc(=O)c2c1` [Compound 79, 8-((4,6-difluoroindolin-1-yl)methyl)-N-ethyl-N-methyl-2-morpholino-4-oxo-4H-chromene-6-carboxamide], the inhibition at 0.5 µM reads like this: under setting [1], 80 to 90%; under setting [2], 80 to 90%. For `CN(C)C(=O)c1cc(CN2CCc3c(F)cc(F)cc32)c2oc(N3CCO[C@H](CO)C3)cc(=O)c2c1` [Compound 92, (S)-8-((4,6-difluoroindolin-1-yl)methyl)-2-(2-(hydroxymethyl)morpholino)-N,N-dimethyl-4-oxo-4H-chromene-6-carboxamide], the inhibition at 0.5 µM is, setting by setting: under setting [3], 60 to 80%; under setting [4], 60 to 80%.

Consider `CN(C)C(=O)c1cc(CN2CCc3ccccc32)c2oc(N3CCOCC3)cc(=O)c2c1` [Compound 67, 8-(indolin-1-ylmethyl)-N,N-dimethyl-2-morpholino-4-oxo-4H-chromene-6-carboxamide], for which the inhibition at 0.5 µM reads like this: under setting [1], 60 to 80%; under setting [2], 60 to 80%.

On to `Cc1cc(CN2c3cc(F)cc(F)c3CC2C)c2nc(N3CCOCC3)cc(=O)n2c1` (stereo not shown) [Compound 55, 9-((4,6-difluoro-2-methylindolin-1-yl)methyl)-7-methyl-2-morpholino-4H-pyrido[1,2-a]pyrimidin-4-one], for which the inhibition at 0.5 µM reads like this: under setting [1], 20 to 60%; under setting [2], 20 to 60%. In the case of `CN(C)C(=O)c1cc(CN2c3cc(F)cc(F)c3CC2(C)C)c2oc(N3CCOCC3)cc(=O)c2c1` [Compound 66, 8-((4,6-difluoro-2,2-dimethylindolin-1-yl)methyl)-N,N-dimethyl-2-morpholino-4-oxo-4H-chromene-6-carboxamide], the inhibition at 0.5 µM lay in the range of 80 to 90% under setting [1] and 80 to 90% under setting [2].

As to `CC(Nc1cccc(F)c1F)c1cc(C(=O)N2CC[C@@H](N(C)C)C2)cn2c(=O)cc(N3CCOCC3)nc12` (stereo partly drawn) [Compound 95, 9-(1-((2,3-difluorophenyl)amino)ethyl)-7-((R)-3-(dimethylamino)pyrrolidine-1-carbonyl)-2-morpholino-4H-pyrido[1,2-a]pyrimidin-4-one], the inhibition at 0.5 µM reads like this: under setting [3], 60 to 80%; under setting [4], 60 to 80%.

Take `CCC(=O)Nc1cc(C(C)Nc2cc(F)cc(F)c2)c2oc(N3CCOCC3)cc(=O)c2c1` (stereo not shown) [Compound 11, N-(8-(1-((3,5-difluorophenyl)amino)ethyl)-2-morpholino-4-oxo-4H-chromen-6-yl)propionamide]: the inhibition at 0.5 µM under setting [1] is more than 90% and the inhibition at 0.5 µM under setting [2] is more than 90%. Regarding `CN(C)C(=O)c1cc(CN2CCc3c(F)cc(F)cc32)c2nc(N3CCOCC3)cc(=O)n2c1` [Compound 98, 9-((4,6-difluoroindolin-1-yl)methyl)-N,N-dimethyl-2-morpholino-4-oxo-4H-pyrido[1,2-a]pyrimidine-7-carboxamide], the inhibition at 0.5 µM under setting [1] lay within 80 to 90% and the inhibition at 0.5 µM under setting [2] was in the range of 80 to 90%. Regarding `C[C@@H]1Cc2c(F)cc(F)cc2N1Cc1cc(C(=O)N(C)C)cc2c(=O)cc(N3CCOCC3)oc12` (single isomer, unassigned) [Compound 65], the inhibition at 0.5 µM reads like this: under setting [1], 20 to 60%; under setting [2], 20 to 60%. Consider `CCOc1cc(CNc2cc(F)cc(F)c2)c2oc(N3CCOCC3)cc(=O)c2c1` [Compound 4, 8-(((3,5-difluorophenyl)amino)methyl)-6-ethoxy-2-morpholino-4H-chromen-4-one], for which the inhibition at 0.5 µM reads like this: under setting [1], 60 to 80%; under setting [2], 60 to 80%. As to `CN(C)C(=O)c1cc(CN2CCc3c(Cl)cccc32)c2oc(N3CCOCC3)cc(=O)c2c1` [Compound 71, 8-((4-chloroindolin-1-yl)methyl)-N,N-dimethyl-2-morpholino-4-oxo-4H-chromene-6-carboxamide], the inhibition at 0.5 µM under setting [1] was more than 90% and the inhibition at 0.5 µM under setting [2] was more than 90%. Consider `Cc1cc(CN2CCc3cc(F)ccc32)c2nc(N3CCOCC3)cc(=O)n2c1` [Compound 56, 9-((5-fluoroindolin-1-yl)methyl)-7-methyl-2-morpholino-4H-pyrido[1,2-a]pyrimidin-4-one], for which the inhibition at 0.5 µM is, setting by setting: under setting [1], 60 to 80%; under setting [2], 60 to 80%. Take `Cc1cc(CN2c3ccccc3CC2C)c2nc(N3CCOCC3)cc(=O)n2c1` (stereo not shown) [Compound 57, 7-methyl-9-((2-methylindolin-1-yl)methyl)-2-morpholino-4H-pyrido[1,2-a]pyrimidin-4-one]: the inhibition at 0.5 µM is 60 to 80% under setting [1] and 60 to 80% under setting [2]. For the compound `O=C(c1cc(CN2CCc3c(F)cc(F)cc32)c2oc(N3CCOCC3)cc(=O)c2c1)N1CCC1` [Compound 45, 6-(azetidine-1-carbonyl)-8-((4,6-difluoroindolin-1-yl)methyl)-2-morpholino-4H-chromen-4-one], the inhibition at 0.5 µM reads like this: under setting [1], more than 90%; under setting [2], more than 90%.

With `CNC(=O)c1cc(CN2CCc3c(F)cc(F)cc32)c2oc(N3CCOCC3)cc(=O)c2c1` [Compound 86, 8-((4,6-difluoroindolin-1-yl)methyl)-N-methyl-2-morpholino-4-oxo-4H-chromene-6-carboxamide], the inhibition at 0.5 µM by setting is: under setting [1], more than 90%; under setting [2], more than 90%. Turning to `CC(Nc1cc(F)cc(F)c1)c1cc(Cc2nnc[nH]2)cc2c(=O)cc(N3CCOCC3)oc12` (stereo not shown) [Compound 60, 6-((4H-1,2,4-triazol-3-yl)methyl)-8-(1-((3,5-difluorophenyl)amino)ethyl)-2-morpholino-4H-chromen-4-one], the inhibition at 0.5 µM was 80 to 90% under setting [1] and 80 to 90% under setting [2]. On to `N#Cc1cc(CNc2cc(F)cc(F)c2)c2oc(N3CCOCC3)cc(=O)c2c1` [Compound 3, 8-(((3,5-difluorophenyl)amino)methyl)-2-morpholino-4-oxo-4H-chromene-6-carbonitrile], for which the inhibition at 0.5 µM lay in the range of 60 to 80% under setting [1] and 60 to 80% under setting [2].
